Data on 18 molecules can be found in US20240182436A1, “SUBSTITUTED SULFONAMIDE-CHROMAN COMPOUNDS, AND PHARMACEUTICAL COMPOSITIONS, AND METHODS OF USE THEREOF” (priority 2021, published 2024).

Structures are written as SMILES. A value given as a limit tells only on which side of the number the result lay.

One experiment relates to Harmaline-induced tremor. In words: Harmaline-induced Tremor Model. In kind it is in vivo. The note with it: Mus musculus, ip, adult male CD1 mice; test article 30 mg/kg i.p.; harmaline 30 mg/kg i.p.; read-out: Tremor Suppression Activity (magnitude of tremor suppression in percent compared to vehicle). From the text:
Harmaline-induced Tremor: Harmaline-induced tremor is widely recognized as an animal model of Essential Tremor (ET). Following acute administration, harmaline produces an 8-16 Hz tremor in rodents, cats, and monkeys that, like ET, is postural and kinetic, involving appendicular and axial musculature (Handforth, A. (2012). Harmaline tremor: underlying mechanisms in a potential animal model of essential tremor. Tremor and Other Hyperkinetic Movements (NY), 2, 02-92-769-1; Handforth, A. (2016). Linking Essential Tremor to the Cerebellum-Animal Model Evidence. Cerebellum, 15(3), 285-298; LeDoux, M. (2005). Harmaline tremor. In Movement Disorders. Elsevier Inc.; Louis, E. D. (2014). Re-thinking the biology of essential tremor: From models to morphology. Parkinsonism and Related Disorders, 20 (SUPPL.1), S88-S93). […] Clinical agents that suppress ET in patients are generally effective in the harmaline-induced tremor model (Handforth 2016). Following acute dosing of harmaline in mice, the tremor frequency (10-20 Hz) is typically recorded using an automated force plate-based system.
Procedure: Tremor activity was measured using a custom-made testing apparatus containing a piezoelectric sensing platform which was connected to an amplifier (A-M Systems model 1700). Adult male CD1 mice were brought to the experiment room for acclimatization 1 h prior to testing. Mice were first placed inside the testing apparatus for 10 min baseline habituation. After the initial habituation, mice were treated with vehicle (10 ml/kg) or test article (30 mg/kg, i.p.) and placed back in the apparatus for an additional 20 min baseline recording. Subsequently, animals were injected with harmaline (30 mg/kg, i.p.) and tremor activity was measured for 20 min. The electric signal of tremor activity was amplified at a sampling rate of 512 Hz with a multichannel amplifier and then acquired, quantized, and digitized by a data acquisition unit (CED Micro 1401). The software Spike2 (v 7.07, Cambridge Electronic Design, Cambridge, UK) was used to analyze the tremor signal by performing Fourier transformation of the data into frequency spectra. Changes in absolute power were expressed relative to each animal's 20-min baseline for the frequencies of 10-20 Hz. Comparisons between treatment and respective vehicle groups were assessed with two-tailed, Student's t-test. The level of statistical significance was defined as p<0.05 (see, e.g., Table 2.1) The magnitude of tremor suppression in percent compared to vehicle is shown in Table 2.2.
A tremor suppression score was defined as the magnitude of tremor suppression in percent compared to vehicle: ≤24% (D), 25-55% (C), 56-70% (B) and 71-100% (A). Not tested (---).
With `CC[C@@H]1C[C@H](CS(N)(=O)=O)c2ccc(F)cc2O1` (stereo in doubt) [Compound 11, ((2R*,4S*)-2-ethyl-7-fluorochroman-4-yl)methanesulfonamide], the inhibition in vivo at 30 mg/kg lay in the range of 71 to 100%. Same read-out and setting: the result for `CC[C@H]1C[C@@H](CS(N)(=O)=O)c2ccc(F)cc2O1` (stereo in doubt) [Compound 12, ((2S*,4R*)-2-ethyl-7-fluorochroman-4-yl)methanesulfonamide] reads 56 to 70%; that for `CC[C@H]1COc2cc(F)ccc2[C@H]1CS(N)(=O)=O` (stereo in doubt) [Compound 19, ((3R*,4S*)-3-ethyl-7-fluorochroman-4-yl)methanesulfonamide], not above 24%. With `CC[C@@H]1COc2cc(F)ccc2[C@@H]1CS(N)(=O)=O` (stereo in doubt) [Compound 20, ((3S*,4R*)-3-ethyl-7-fluorochroman-4-yl)methanesulfonamide], the inhibition in vivo at 30 mg/kg was in the range of 71 to 100%. With `CC[C@@H]([C@H]1CCOc2cc(F)ccc21)S(N)(=O)=O` (stereo in doubt) [Compound 25, (S*)-1-((S*)-7-fluorochroman-4-yl)propane-1-sulfonamide], the inhibition in vivo at 30 mg/kg lay within 56 to 70%.

For the molecule `CC[C@H]([C@@H]1CCOc2cc(F)ccc21)S(N)(=O)=O` (stereo in doubt) [Compound 26, (R*)-1-((R*)-7-fluorochroman-4-yl)propane-1-sulfonamide], the inhibition in vivo at 30 mg/kg is 71 to 100%. Take `C[C@@H]1C[C@H](CS(N)(=O)=O)c2ccccc2O1` (stereo in doubt) [Compound 33, ((2R*,4S*)-2-methylchroman-4-yl)methanesulfonamide]: the inhibition in vivo at 30 mg/kg lay within 25 to 55%. Still for that read-out and setting: as for `C[C@H]1C[C@@H](CS(N)(=O)=O)c2ccccc2O1` (stereo in doubt) [Compound 34, ((2S*,4R*)-2-methylchroman-4-yl)methanesulfonamide], the figure is 56 to 70%; as for `C[C@H]1COc2ccccc2[C@H]1CS(N)(=O)=O` (stereo in doubt) [Compound 39, ((3R*,4S*)-3-methylchroman-4-yl)methanesulfonamide], 25 to 55%; as for `C[C@@H]1COc2ccccc2[C@@H]1CS(N)(=O)=O` (stereo in doubt) [Compound 40, ((3S*,4R*)-3-methylchroman-4-yl)methanesulfonamide], 25 to 55%. Same read-out and setting: the result for `C[C@@H]1COc2ccccc2[C@H]1CS(N)(=O)=O` (stereo in doubt) [Compound 41, ((3S*,4S*)-3-methylchroman-4-yl)methanesulfonamide] reads 56 to 70%; that for `C[C@H]1COc2ccccc2[C@@H]1CS(N)(=O)=O` (stereo in doubt) [Compound 42, ((3R*,4R*)-3-methylchroman-4-yl)methanesulfonamide], not above 24%; that for `CN([C@H]1CCOc2cc(F)ccc21)S(N)(=O)=O` (stereo in doubt) [Compound 69, 4(S*))-7-fluoro-4-[methyl(sulfamoyl)amino]-3,4-dihydro-2(H)-chromene], not above 24%. Still for that read-out and setting: as for `CN([C@@H]1CCOc2cc(F)ccc21)S(N)(=O)=O` (stereo in doubt) [Compound 70, 4(R*))-7-fluoro-4[methyl(sulfamoyl)amino]-3,4-dihydro-2(H)-chromene], the figure is not above 24%; as for `NS(=O)(=O)N[C@H]1CCOc2cc(F)ccc21` (stereo in doubt) [Compound 71, 4(S*))-7-fluoro-4-(sulfamoylamino)-3,4-dihydro-2(H)-chromene], 56 to 70%.

`NS(=O)(=O)N[C@@H]1CCOc2cc(F)ccc21` (stereo in doubt) [Compound 72, 4(R*))-7-fluoro-4-(sulfamoylamino)-3,4-dihydro-2(H)-chromene]: the inhibition in vivo at 30 mg/kg was in the range of 25 to 55%. The same measure, in the same setting: as for `C[C@@H]1COc2cc(F)ccc2[C@@H]1NS(N)(=O)=O` (stereo in doubt) [Compound 73, (3(S*),4(R*))-7-fluoro-3-methyl-4-(sulfamoylamino)-3,4-dihydro-2(H)-chromene], the figure is 56 to 70%; as for `C[C@H]1COc2cc(F)ccc2[C@H]1NS(N)(=O)=O` (stereo in doubt) [Compound 74, (3(R*),4(S*))-7-fluoro-3-methyl-4-(sulfamoylamino)-3,4-dihydro-2(H)-chromene], 56 to 70%.

The experiment is the same for the next values; noted with them: adult male CD1 mice; test article 30 mg/kg i.p.; harmaline 30 mg/kg i.p.; 10-20 Hz power over 20 min relative to 20-min baseline.
As for `CC[C@@H]1C[C@H](CS(N)(=O)=O)c2ccc(F)cc2O1` (stereo in doubt) [Compound 11, ((2R*,4S*)-2-ethyl-7-fluorochroman-4-yl)methanesulfonamide], the “Tremor power relative to baseline (mean ± s.e.m.)” value was determined as 134 ± 32. The same measure, in the same setting: the result for `CC[C@H]1C[C@@H](CS(N)(=O)=O)c2ccc(F)cc2O1` (stereo in doubt) [Compound 12, ((2S*,4R*)-2-ethyl-7-fluorochroman-4-yl)methanesulfonamide] reads 196 ± 59.
